Drawing on patent publication US4656192A, “Tropolone derivatives, processes for the preparation thereof and the use thereof as anti-tumor agents” (Mect Corporation, priority 1984, dated 1987), this text covers IC50, response vs control in vivo and LD50 for 14 compounds.

Each structure is given as a SMILES string. Values after ≈ are worked out from the molar mass of the structure shown.

Data set [1] deals with KB-cells. Put plainly: KB-cell growth inhibition tests. In kind it is cell-based. Particulars: Homo sapiens, 48 h, MEM-10% calf serum, 5% CO2, 37° C., sample added second day, surviving cells counted fourth day, substantially 50% growth inhibition vs sample-free control, read-out: KB cell growth inhibition ED50. As for the experimental part:
KB-cells were placed in an Eagles minimal essential medium (MEM)-10% calf serum medium and cultered in a 5 % carbon dioxide atmosphere at 37° C. in an incubator. The cells thus treated were used in the tests. On the first day, the KB cells were diluted to a concentration of 2×10^4 /ml 3 ml of the resulting suspension was placed in watch glasses having a diameter of 60 mm. On the second day, 100, 30, 10, 3 and 1 μg/ml of each sample to be tested was added thereto and the culture was continued under the same conditions as above. On the fourth day, the surviving cells were taken out of the watch glass by meand of trypsin and the number of the cells was counted. The concentration of the sample required for obtaining substantially 50 % growth inhibition based on the sample-free control (ED50) was determined. The cancer cell growth inhibition effect of the sample was shown by ED50.

Data set [2] concerns P388 cancer cells. The experiment in a line: Tests of life-prolongation effects on cancered mice (P388, i.p.). In kind it is in vivo. Particulars: Mus musculus, P388, ip, i.p. on first and fifth day, P388 in CDF mice, read-out: Life-prolongation effects T/C %. The method, then:
10^6 P388 cancer cells were grafted into groups of CDF mice. Each group consisted of six mice. On the first day and the fifth day, a sample to be tested was administered to the mice intraperitoneally. The life-prolongation effects were shown in terms of the ratio of the number of surviving days of the mice in the treated group to that in the control group (T/C %).

Data set [3] is described as follows: Acute toxicity in mice. Particulars: mouse, in vivo, male mice. The text has this:
The compounds of the present invention have only a low acute toxicity. For example, the acute toxicities of typical compounds, i.e., α,α-bis(2-hydroxy-6-isopropyl-tropon-3-yl)toluene (IIIa) and α,α-bis(2-hydroxy-6-isopropyl-tropon-3-yl)-4-methoxytoluene (IIIb) have LD50 as shown in the following table: […]

One may read the LD50 as the dose at which mortality reaches 50%. Lower therefore signals a more toxic substance.

Turning to `CC(C)c1ccc(C2OCCc3ccccc32)c(O)c(=O)c1` (stereo not drawn) [IIa, 3-(1-isochromanyl)-6-isopropyltropolone], the IC50 in data set [1] is below 0.3 µg/mL. Also, the response vs control in vivo at 100 mg/kg in data set [2] was 126%.

With `COc1ccc(C(c2ccc(C(C)C)cc(=O)c2O)c2ccc(C(C)C)cc(=O)c2O)cc1` [IIIb, α,α-bis(2-hydroxy-6-isopropyl-tropon-3-yl)-4-methoxytoluene], in data set [1], the IC50 was below 0.3 µg/mL. Also, the response vs control in vivo at 0.62 mg/kg in data set [2] (0.62 mg/kg) was 127%. The response vs control in vivo at 5 mg/kg in data set [2] is 173%. Besides, the values for the LD50 in data set [3] (ip), in data set [3] (iv) and in data set [3] (po) were 11.2 mg/kg, 9.1 mg/kg and above 5000 mg/kg, respectively.

For the compound `CCOC(c1ccccc1)c1ccc(C(C)C)cc(=O)c1O` (stereo not drawn) [Ia], in data set [1], the IC50 is below 0.3 µg/mL. Further, the response vs control in vivo at 200 mg/kg in data set [2] was determined as 109%.

Turning to `CC(C)c1ccc(C(c2ccccc2)c2ccccc2)c(O)c(=O)c1` [Ie, 3-benzhydryl-6-isopropyltropolone], the IC50 in data set [1] is 1.39 µg/mL (≈ 4.21 µM). In addition, in data set [2], the response vs control in vivo at 200 mg/kg is 123% and the response vs control in vivo at 400 mg/kg is 132%.

As to `Cc1ccc(C(c2ccc(C(C)C)cc(=O)c2O)c2ccc(C(C)C)cc(=O)c2O)cc1` [IIIc, α,α-bis(2-hydroxy-6-isopropyl-tropon-3-yl)-4-methyltoluene], the IC50 in data set [1] worked out at 1.45 µg/mL (≈ 3.37 µM). Moreover, in data set [2], the response vs control in vivo at 2.5 mg/kg was 125% and the response vs control in vivo at 10 mg/kg came to 163%.

Consider `CCOC(c1ccc(OC)cc1)c1ccc(C(C)C)cc(=O)c1O` (stereo not drawn) [Ic, 3-(α-ethoxy-4-methoxybenzyl)-6-isopropyltropolone], for which, in data set [1], the IC50 was 0.51 µg/mL (≈ 1.55 µM). For the same compound, the response vs control in vivo at 100 mg/kg in data set [2] came out at 140%.

For the compound `CC(C)c1ccc(C(c2ccc(N(C)C)cc2)c2ccc(C(C)C)cc(=O)c2O)c(O)c(=O)c1` [IIIe, α,α-bis(2-hydroxy-6-isopropyl-tropon-3-yl)-4-(N,N-dimethylamino)toluene], the IC50 in data set [1] amounted to 0.69 µg/mL (≈ 1.5 µM). For the same compound, the response vs control in vivo at 2.5 mg/kg in data set [2] was determined as 141%.

With `CCOC(c1ccc(C)cc1)c1ccc(C(C)C)cc(=O)c1O` (stereo not drawn) [Ib, 3-(α-ethoxy-4-methylbenzyl)-6-isopropyltropolone], the IC50 in data set [1] came out at 6.2 µg/mL (≈ 19.8 µM). The response vs control in vivo at 400 mg/kg in data set [2] is 125%.

As for `CC(C)c1ccc(C(c2ccccc2)c2ccc(C(C)C)cc(=O)c2O)c(O)c(=O)c1` [IIIa, α,α-bis(2-hydroxy-6-isopropyl-tropon-3-yl)toluene], in data set [1], the IC50 was below 0.3 µg/mL. Also, in data set [2] (1.25 mg/kg), the response vs control in vivo at 1.25 mg/kg amounted to 132%. Also, the response vs control in vivo at 5 mg/kg in data set [2] turned out to be 188%. In addition, the LD50 in data set [3] (ip) is 5.5 mg/kg; in data set [3] (iv), 5.8 mg/kg; in data set [3] (po) it was above 5000 mg/kg.

On to `CCOC(c1ccc(N(C)C)cc1)c1ccc(C(C)C)cc(=O)c1O` (stereo not drawn) [Id, 3-[α-ethoxy-4-(N,N-dimethylamino)benzyl]-6-isopropyltropolone], for which the IC50 in data set [1] came to 0.59 µg/mL (≈ 1.73 µM). In addition, the response vs control in vivo at 100 mg/kg in data set [2] turned out to be 136%.

For the compound `COc1ccc(C(c2cc(C(C)C)ccc(=O)c2O)c2cc(C(C)C)ccc(=O)c2O)cc1` [IVa, α,α-bis(2-hydroxy-5-isopropyltropon-3-yl)-4-methoxytoluene], in data set [1], the IC50 amounted to 0.3 µg/mL (≈ 0.672 µM). Besides, in data set [2], the response vs control in vivo at 2.5 mg/kg was determined as 137% and the response vs control in vivo at 10 mg/kg was 147%.

Take `CC(C)c1ccc(Cc2ccccc2)c(O)c(=O)c1` [If, 3-benzyl-6-isopropyltropolone]: the IC50 in data set [1] was 0.56 µg/mL (≈ 2.2 µM). The response vs control in vivo at 200 mg/kg in data set [2] came out at 97%.

Turning to `O=c1ccccc(C2OCCc3ccccc32)c1O` (stereo not drawn) [IIb, 3-(1-isochromanyl)tropolone], the response vs control in vivo at 100 mg/kg in data set [2] worked out at 96%.

As to `CC(C)c1ccc(C(c2ccc(Cl)cc2)c2ccc(C(C)C)cc(=O)c2O)c(O)c(=O)c1` [IIId, α,α-bis(2-hydroxy-6-isopropyl-tropon-3yl)-4-chlorotoluene], the IC50 in data set [1] was determined as 2 µg/mL (≈ 4.43 µM). Also, in data set [2], the response vs control in vivo at 2.5 mg/kg came to 124% and the response vs control in vivo at 10 mg/kg came to 144%.
